In ChEMBL document CHEMBL1201862, “PubChem BioAssay data set” (2004):
Several values for one entry are separate records, joined by “and”; a condition that tells them apart may be missing. Identical values can stand only once.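 These data come from cells grown in 96-well plates and exposed to compound for 48 hours at five concentrations. GI50 = concentration required for 50% inhibition of growth.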 Activity calls are given as the source filed them. Cut-off read from the data, not from the text of the source: active = GI50 up to about 1.1 µM and inactive = higher.

Experiments:
Assay in all cases: NCI anticancer screen, dose series, 48 h
[1] = test system: SK-MEL-2
[2] = test system: K562
[3] = test system: SW-620
[4] = test system: HOP-92
[5] = test system: MDA-MB-231
[6] = test system: SF-539
[7] = test system: HT-29
[8] = test system: OVCAR-8
[9] = test system: SN12C
[10] = test system: CCRF-CEM
[11] = test system: ACHN
[12] = test system: SNB-75
[13] = test system: UACC-257
[14] = test system: NCI-H226
[15] = test system: NCI-H460
[16] = test system: SK-MEL-28
[17] = test system: EKVX
[18] = test system: OVCAR-3
[19] = test system: DU-145
[20] = test system: SR

| SMILES | GI50 [1] | GI50 [2] | GI50 [3] | GI50 [4] | GI50 [5] | GI50 [6] | GI50 [7] | GI50 [8] | GI50 [9] | GI50 [10] | GI50 [11] | GI50 [12] | GI50 [13] | GI50 [14] | GI50 [15] | GI50 [16] | GI50 [17] | GI50 [18] | GI50 [19] | GI50 [20] |
| --- | --- | --- | --- | --- | --- | --- | --- | --- | --- | --- | --- | --- | --- | --- | --- | --- | --- | --- | --- | --- |
| COc1cccc(NC(=O)C(C#N)=C(SC)SC)c1 | > 100 µM (inactive) | > 100 µM (inactive) | > 100 µM (inactive) | 46 µM (inactive) | > 100 µM (inactive) | > 100 µM (inactive) | > 100 µM (inactive) | > 100 µM (inactive) | > 100 µM (inactive) | 34 µM (inactive) | > 100 µM (inactive) | > 100 µM (inactive) | > 100 µM (inactive) | > 100 µM (inactive) | > 100 µM (inactive) | > 100 µM (inactive) | > 100 µM (inactive) | – | – | – |
| CC(C)Oc1c(C2(c3ccccc3)SCCCS2)c(=O)c1=O | > 100 µM (inactive) | – | > 100 µM (inactive) | > 100 µM (inactive) | > 100 µM (inactive) | > 100 µM (inactive) | > 100 µM (inactive) | > 100 µM (inactive) | > 100 µM (inactive) | 45.6 µM (inactive) | > 100 µM (inactive) | > 100 µM (inactive) | > 100 µM (inactive) | > 100 µM (inactive) | > 100 µM (inactive) | > 100 µM (inactive) | > 100 µM (inactive) | > 100 µM (inactive) | > 100 µM (inactive) | – |
| O=C(O)c1ccc(N2C=[N+]3C(=Nc4ccccc43)C2)cc1 | > 100 µM (inactive) | > 100 µM (inactive) | > 100 µM (inactive) | – | > 100 µM (inactive) | – | > 100 µM (inactive) | > 100 µM (inactive) | > 100 µM (inactive) | > 100 µM (inactive) | > 100 µM (inactive) | 62.7 µM (inactive) | > 100 µM (inactive) | > 100 µM (inactive) | > 100 µM (inactive) | > 100 µM (inactive) | > 100 µM (inactive) | > 100 µM (inactive) | > 100 µM (inactive) | – |
| COc1cc2c(cc1OC)C(c1ccccc1CCCCl)=NCC2 | > 100 µM (inactive) | 35.8 µM (inactive) | 25.6 µM (inactive) | 39.1 µM (inactive) | > 100 µM (inactive) | > 100 µM (inactive) | 44.2 µM (inactive) | 97.5 µM (inactive) | 93.1 µM (inactive) | > 100 µM (inactive) | > 100 µM (inactive) | 75.3 µM (inactive) | 53.1 µM (inactive) | 80.4 µM (inactive) | 48.6 µM (inactive) | 19.1 µM (inactive) | 90.2 µM (inactive) | > 100 µM (inactive) | > 100 µM (inactive) | – |
| OCCN(CCO)c1ccc2c(-c3ccccc3)cc(N(CCO)CCO)nc2n1 | > 100 µM (inactive) | > 100 µM (inactive) | > 100 µM (inactive) | – | > 100 µM (inactive) | – | > 100 µM (inactive) | > 100 µM (inactive) | > 100 µM (inactive) | > 100 µM (inactive) | > 100 µM (inactive) | > 100 µM (inactive) | > 100 µM (inactive) | > 100 µM (inactive) | > 100 µM (inactive) | > 100 µM (inactive) | > 100 µM (inactive) | > 100 µM (inactive) | > 100 µM (inactive) | 20 µM (inactive) |
| O=C(/C=C/c1ccccc1)c1ccccn1 | 19.2 µM (inactive) | – | 18.7 µM (inactive) and 29.8 µM (inactive) | 19.1 µM (inactive) | – | 17.8 µM (inactive) | 20.7 µM (inactive) and 15.5 µM (inactive) | 17.6 µM (inactive) and 25.1 µM (inactive) | 14.3 µM (inactive) and 17.2 µM (inactive) | 10 µM (inactive) and 17.1 µM (inactive) | 15.5 µM (inactive) and 16.9 µM (inactive) | 24.5 µM (inactive) and 16 µM (inactive) | 13.2 µM (inactive) and 16.4 µM (inactive) | 16.6 µM (inactive) and 26.7 µM (inactive) | 16.7 µM (inactive) and 21.3 µM (inactive) | 17 µM (inactive) and 26.2 µM (inactive) | 22 µM (inactive) and 18.1 µM (inactive) | 12.7 µM (inactive) and 16.4 µM (inactive) | 12.4 µM (inactive) and 18.3 µM (inactive) | – |
| COC1=CC(=O)C2=C(C[C@@]3(C)C(=C2)C(CO)=CC[C@H]3O)C1=O | – | 2.57 µM (inactive) | 25.3 µM (inactive) | 11 µM (inactive) | 3.86 µM (inactive) | 18.8 µM (inactive) | 46.1 µM (inactive) | 18.2 µM (inactive) | 17.8 µM (inactive) | 4.04 µM (inactive) | 18.2 µM (inactive) | – | 18.6 µM (inactive) | 14 µM (inactive) | 25.9 µM (inactive) | 29.6 µM (inactive) | 21.8 µM (inactive) | 24.9 µM (inactive) | 38.9 µM (inactive) | – |
| NC12CC3CC4C1CC1CC2C(C3)C4(N)C1 | > 100 µM (inactive) | > 100 µM (inactive) | > 100 µM (inactive) | > 100 µM (inactive) | > 100 µM (inactive) | – | > 100 µM (inactive) | > 100 µM (inactive) | > 100 µM (inactive) | > 100 µM (inactive) | > 100 µM (inactive) | – | > 100 µM (inactive) | > 100 µM (inactive) | > 100 µM (inactive) | > 100 µM (inactive) | > 100 µM (inactive) | > 100 µM (inactive) | > 100 µM (inactive) | – |
| Cc1ccc(-n2cnc3c(N/N=C4\SCC(=O)N4c4ccccc4)ncnc32)cc1 | 2.31 µM (inactive) | 1.29 µM (inactive) | 4.01 µM (inactive) | 2.66 µM (inactive) | 3.3 µM (inactive) | 1.87 µM (inactive) | 3.44 µM (inactive) | 3.27 µM (inactive) | 2.97 µM (inactive) | 0.437 µM (active) | 5.78 µM (inactive) | – | 3.87 µM (inactive) | 4.02 µM (inactive) | 2.9 µM (inactive) | 2.95 µM (inactive) | 14.8 µM (inactive) | 3.13 µM (inactive) | 4.37 µM (inactive) | – |
| COc1ccc2c(c1)nc1n2C(N)=Nc2ccccc2S1 | > 100 µM (inactive) | 4.91 µM (inactive) | 28.5 µM (inactive) | 3.79 µM (inactive) | 52.5 µM (inactive) | 33.4 µM (inactive) | 17.7 µM (inactive) | 18.4 µM (inactive) | 44.6 µM (inactive) | 2.55 µM (inactive) | 29.6 µM (inactive) | > 42.9 µM (inactive) | 32.5 µM (inactive) | 11.6 µM (inactive) | 12.8 µM (inactive) | > 80.5 µM (inactive) | 28.5 µM (inactive) | 5.55 µM (inactive) | 35.5 µM (inactive) | – |
| O=C(/C=C1/Nc2ccc([N+](=O)[O-])cc2N/C1=C/C(=O)c1ccc(Cl)cc1)c1ccccc1 | 19.9 µM (inactive) | 55.8 µM (inactive) | – | – | 35 µM (inactive) | 30.3 µM (inactive) | > 100 µM (inactive) | 72.4 µM (inactive) | > 100 µM (inactive) | 64.7 µM (inactive) | > 100 µM (inactive) | 19.9 µM (inactive) | > 100 µM (inactive) | > 100 µM (inactive) | 32 µM (inactive) | – | > 100 µM (inactive) | > 100 µM (inactive) | > 100 µM (inactive) | > 100 µM (inactive) |
| Cc1ccc(NC(=O)/C(CC2Nc3c(ccc4c3C(=O)c3ccccc3C4=O)NC2O)=N/NC(C)(C)C)cc1 (configuration not stated) | 18.9 µM (inactive) | – | 9.68 µM (inactive) | 16.8 µM (inactive) | 3.42 µM (inactive) | 7.59 µM (inactive) | 16.4 µM (inactive) | 6.52 µM (inactive) | 12.6 µM (inactive) | 1.36 µM (inactive) | 12.4 µM (inactive) | 25.8 µM (inactive) | 16.1 µM (inactive) | – | 9.57 µM (inactive) | 12.1 µM (inactive) | 10 µM (inactive) | 18.7 µM (inactive) | 7.36 µM (inactive) | – |
| Cc1cc2[nH]c3c(C#N)c(-c4ccccc4)c(/C=N/c4ccc(Cl)cc4)c(=O)n3c2cc1C | > 100 µM (inactive) | – | > 100 µM (inactive) | – | > 100 µM (inactive) | > 100 µM (inactive) | – | > 100 µM (inactive) | > 100 µM (inactive) | > 100 µM (inactive) | > 100 µM (inactive) | > 100 µM (inactive) | > 100 µM (inactive) | > 100 µM (inactive) | > 100 µM (inactive) | > 100 µM (inactive) | > 100 µM (inactive) | > 100 µM (inactive) | – | – |
| Cc1csc(NNC(=O)Nc2ccccc2)n1 | > 100 µM (inactive) | > 100 µM (inactive) | > 100 µM (inactive) | – | > 100 µM (inactive) | > 100 µM (inactive) | > 100 µM (inactive) | > 100 µM (inactive) | > 100 µM (inactive) | > 100 µM (inactive) | > 100 µM (inactive) | > 100 µM (inactive) | > 100 µM (inactive) | > 100 µM (inactive) | > 100 µM (inactive) | > 100 µM (inactive) | > 100 µM (inactive) | – | > 100 µM (inactive) | > 100 µM (inactive) |
| COc1ccc(CNc2nc(NCc3ccc(OC)cc3)nc(NC3CCCC3)n2)cc1 | – | 2.99 µM (inactive) | 4.14 µM (inactive) | – | 3.54 µM (inactive) | 2.75 µM (inactive) | 3.04 µM (inactive) | 4.06 µM (inactive) | > 19.8 µM (inactive) | 2.24 µM (inactive) | 4.47 µM (inactive) | 16.4 µM (inactive) | 12 µM (inactive) | 5.07 µM (inactive) | 3.6 µM (inactive) | 10.9 µM (inactive) | 19.9 µM (inactive) | 2.76 µM (inactive) | 3.44 µM (inactive) | 2.67 µM (inactive) |
